Tests used:
[1] = target: T1, Human immunodeficiency virus type 1 reverse transcriptase (Human immunodeficiency virus 1, UniProt Q72547); assay: Compound concentration that causes 50 % inhibition of HIV-1 peptide-derived reverse transcriptase (RT) obtained from HIV-1-infected H9 cell cultures
[2] = target: T1, Human immunodeficiency virus type 1 reverse transcriptase; assay: Compound concentration that causes 50 % inhibition of HIV-1 peptide-derived reverse transcriptase (RT)
[3] = target: T1, Human immunodeficiency virus type 1 reverse transcriptase; assay: Inhibitory constant was determined in an HIV-1 reverse transcriptase assay in which the [3H]dTTP concentration was varied (i.e. 40, 20, 10, 6, and 4 uM

| IC50 [1] [µM] | IC50 [2] [µM] | Ki [3] [µM] | SMILES |
| --- | --- | --- | --- |
| 0.022 | – | – | Cc1cn([C@H]2C[C@H](N=[N+]=[N-])[C@@H](CO[P@](=O)(O)O[P@](=O)(O)OP(=O)(O)O)O2)c(=O)[nH]c1=O [ZIDOVUDINE TRIPHOSPHATE] |
| – | 6.95 | – | Cc1cn(C2CC(N=[N+]=[N-])C(COP(=O)(O)OP(=O)(O)CP(=O)(O)O)O2)c(=O)[nH]c1=O (centres undefined) |
| – | 0.62 | 2.23 | Cc1cn(C2CC(N=[N+]=[N-])C(COP(=O)(O)OP(=O)(O)C(F)(F)P(=O)(O)O)O2)c(=O)[nH]c1=O (centres undefined) |
